Active and inactive are the calls of the source. No cut-off for these calls is given here.
Tests used:
Homo sapiens = species on record: Homo sapiens; test: Inhibition of cell migration in gefitinib-insensitive human HCC827GR cells incubated upto 72 hrs by wound healing assay; assay type: functional
[1] = target: T1, Epidermal growth factor receptor (Homo sapiens, UniProt P00533); test: Inhibition of N-terminal GST-tagged human EGFR (d746-750AA) expressed in baculovirus using FAM-labelled peptide as substrate pre-incubated for 10 mins followed by substrate addition by mobility shift assay
T1 sequence (P00533 whole entry): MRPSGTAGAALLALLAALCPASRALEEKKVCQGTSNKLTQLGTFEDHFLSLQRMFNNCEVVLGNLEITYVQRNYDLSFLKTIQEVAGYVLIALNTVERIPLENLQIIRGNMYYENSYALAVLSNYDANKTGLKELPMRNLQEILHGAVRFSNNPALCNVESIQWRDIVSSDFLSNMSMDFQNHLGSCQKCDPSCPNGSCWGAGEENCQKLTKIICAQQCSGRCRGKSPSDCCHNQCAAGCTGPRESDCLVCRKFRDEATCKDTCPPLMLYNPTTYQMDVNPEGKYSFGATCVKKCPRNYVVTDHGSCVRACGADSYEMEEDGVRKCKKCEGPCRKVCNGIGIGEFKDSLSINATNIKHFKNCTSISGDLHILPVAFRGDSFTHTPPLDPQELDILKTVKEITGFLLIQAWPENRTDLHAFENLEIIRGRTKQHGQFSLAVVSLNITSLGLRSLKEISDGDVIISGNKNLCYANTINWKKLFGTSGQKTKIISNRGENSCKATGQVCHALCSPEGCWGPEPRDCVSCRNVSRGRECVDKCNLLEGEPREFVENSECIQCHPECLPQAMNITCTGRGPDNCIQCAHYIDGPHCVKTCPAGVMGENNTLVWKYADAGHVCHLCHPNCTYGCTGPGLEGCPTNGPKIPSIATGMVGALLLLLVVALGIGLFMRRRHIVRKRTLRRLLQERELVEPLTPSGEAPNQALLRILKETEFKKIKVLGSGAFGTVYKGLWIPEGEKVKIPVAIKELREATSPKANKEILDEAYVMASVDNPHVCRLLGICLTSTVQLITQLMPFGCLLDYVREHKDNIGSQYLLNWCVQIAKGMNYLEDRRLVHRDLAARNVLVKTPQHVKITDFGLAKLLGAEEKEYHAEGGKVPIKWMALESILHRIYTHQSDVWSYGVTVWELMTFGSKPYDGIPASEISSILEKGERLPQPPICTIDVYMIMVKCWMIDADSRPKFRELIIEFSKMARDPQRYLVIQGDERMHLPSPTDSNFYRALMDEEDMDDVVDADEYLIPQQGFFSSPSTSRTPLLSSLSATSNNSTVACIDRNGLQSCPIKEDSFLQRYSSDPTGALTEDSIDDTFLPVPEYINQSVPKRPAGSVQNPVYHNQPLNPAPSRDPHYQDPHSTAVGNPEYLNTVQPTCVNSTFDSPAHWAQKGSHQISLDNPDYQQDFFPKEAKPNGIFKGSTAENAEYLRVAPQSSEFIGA

PC-9 [2] = test: Antiproliferative activity against human PC9 cells assessed as inhibition of cell growth at 10 uM incubated for 48 hrs by MTT assay relative to control; assay type: functional; conditions: PC-9, 48 h
PC-9 [3] = test: Antiproliferative activity against human PC9 cells incubated for 48 hrs by MTT assay; assay type: functional, cell-based; conditions: PC-9, 48 h
[4] = target: T1, Epidermal growth factor receptor; test: Inhibition of EGFR in serum-starved human HCC827 cells assessed as reduction in EGF-induced AKT phosphorylation upto 10 uM incubated for 1 hr by Western blot analysis; assay type: cell-based
NCI-H226 = test: Induction of apoptosis in human NCI-H226 cells assessed as necrotic cells at 1 uM measured after 24 hrs by Annexin-V/propidium iodide staining-based flow cytometric analysis (reference value: 3%); assay type: functional
[5] = Induction of apoptosis in gefitinib-insensitive human HCC827GR cells assessed as viable cells at 1 uM measured after 24 hrs by Annexin-V/propidium iodide staining-based flow cytometric analysis (reference value: 90.8%); assay type: functional; conditions: read-out: Activity
[6] = Induction of apoptosis in gefitinib-insensitive human HCC827GR cells assessed as early apoptotic cells at 1 uM measured after 24 hrs by Annexin-V/propidium iodide staining-based flow cytometric analysis (reference value: 1.9%); assay type: functional
Mus musculus = test: Down regulation of FGFR1 phosphorylation in BALB/c nude mouse xenografted with human HCC827GR cells at 15 mg/kg, ip dosed by western blot analysis; assay type: functional, organism-based
[7] = AUC (0 to infinity) in Sprague-Dawley rat at 30 mg/kg, po measured upto 24 hrs by UPLC-MS/MS; assay type: ADME, organism-based; design: dose 30 mg/kg, route oral, time infinity; conditions: in vivo
[8] = target: Fibroblast growth factor receptor 2 (Homo sapiens) (UniProt P21802); test: Inhibition of N-terminal GST tagged human FGFR2 cytoplasmic domain (399 to 821 AA) expressed in baculovirus at 10 uM using FAM-labelled peptide as substrate pre-incubated for 10 mins followed by substrate addition by mobility shift assay relative to control
Fibroblast growth factor receptor 2 (Homo sapiens), sequence (P21802 22-821 limits assumed): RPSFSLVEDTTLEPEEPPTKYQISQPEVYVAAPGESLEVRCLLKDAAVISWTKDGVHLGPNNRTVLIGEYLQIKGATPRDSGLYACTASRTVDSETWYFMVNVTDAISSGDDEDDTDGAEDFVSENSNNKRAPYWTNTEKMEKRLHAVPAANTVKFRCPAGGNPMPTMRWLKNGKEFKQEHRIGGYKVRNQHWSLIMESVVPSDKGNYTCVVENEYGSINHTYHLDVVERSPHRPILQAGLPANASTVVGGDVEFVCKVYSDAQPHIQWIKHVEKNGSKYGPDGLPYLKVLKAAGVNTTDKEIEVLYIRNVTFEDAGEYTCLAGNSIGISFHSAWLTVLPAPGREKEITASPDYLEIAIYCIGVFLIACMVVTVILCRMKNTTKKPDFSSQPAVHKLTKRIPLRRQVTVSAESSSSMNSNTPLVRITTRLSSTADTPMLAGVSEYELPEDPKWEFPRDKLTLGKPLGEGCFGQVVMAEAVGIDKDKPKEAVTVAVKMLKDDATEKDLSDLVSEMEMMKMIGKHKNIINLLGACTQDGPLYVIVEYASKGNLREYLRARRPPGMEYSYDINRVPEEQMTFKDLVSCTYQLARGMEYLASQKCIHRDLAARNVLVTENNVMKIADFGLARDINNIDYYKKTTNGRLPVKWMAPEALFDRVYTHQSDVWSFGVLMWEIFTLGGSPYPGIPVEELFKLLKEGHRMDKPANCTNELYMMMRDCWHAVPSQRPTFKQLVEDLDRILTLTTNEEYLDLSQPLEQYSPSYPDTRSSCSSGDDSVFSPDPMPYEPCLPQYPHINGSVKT

[9] = target: Tyrosine-protein kinase JAK3 (Homo sapiens) (UniProt P52333); test: Inhibition of N-terminal GST tagged human JAK3 catalytic domain (795 to 1124 AA) expressed in baculovirus at 10 uM using FAM-labelled peptide as substrate pre-incubated for 10 mins followed by substrate addition by mobility shift assay relative to control
Tyrosine-protein kinase JAK3 (Homo sapiens), sequence (P52333 whole entry, the tested form may be a part): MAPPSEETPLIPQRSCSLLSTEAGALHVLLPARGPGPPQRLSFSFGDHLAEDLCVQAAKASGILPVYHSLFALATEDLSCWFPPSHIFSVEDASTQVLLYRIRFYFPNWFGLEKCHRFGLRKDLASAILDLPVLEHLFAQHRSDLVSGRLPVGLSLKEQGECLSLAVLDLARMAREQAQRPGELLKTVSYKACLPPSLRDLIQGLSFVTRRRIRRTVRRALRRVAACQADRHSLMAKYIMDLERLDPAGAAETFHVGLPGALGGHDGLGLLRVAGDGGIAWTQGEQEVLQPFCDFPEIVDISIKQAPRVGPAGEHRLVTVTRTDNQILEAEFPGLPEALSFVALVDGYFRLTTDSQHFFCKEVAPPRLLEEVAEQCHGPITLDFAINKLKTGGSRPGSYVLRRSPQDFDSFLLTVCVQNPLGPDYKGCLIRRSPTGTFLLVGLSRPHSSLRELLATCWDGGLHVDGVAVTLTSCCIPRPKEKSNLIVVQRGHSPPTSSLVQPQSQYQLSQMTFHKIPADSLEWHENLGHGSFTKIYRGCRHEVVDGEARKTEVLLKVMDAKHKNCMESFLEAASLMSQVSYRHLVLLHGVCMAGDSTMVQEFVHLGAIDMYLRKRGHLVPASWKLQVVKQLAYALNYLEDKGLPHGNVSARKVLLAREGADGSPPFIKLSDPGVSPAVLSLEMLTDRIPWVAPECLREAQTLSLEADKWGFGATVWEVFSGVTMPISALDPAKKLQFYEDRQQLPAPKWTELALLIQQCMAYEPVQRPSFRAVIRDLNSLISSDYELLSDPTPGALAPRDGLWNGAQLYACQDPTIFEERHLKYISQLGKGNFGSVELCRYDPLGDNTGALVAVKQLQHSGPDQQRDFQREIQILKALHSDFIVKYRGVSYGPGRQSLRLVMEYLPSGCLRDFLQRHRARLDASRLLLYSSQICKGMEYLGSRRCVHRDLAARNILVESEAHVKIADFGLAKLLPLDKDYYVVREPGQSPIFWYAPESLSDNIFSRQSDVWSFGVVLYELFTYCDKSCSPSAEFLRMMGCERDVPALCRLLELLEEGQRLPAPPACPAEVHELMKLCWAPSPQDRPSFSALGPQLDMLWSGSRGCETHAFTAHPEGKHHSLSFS

[10] = target: Vascular endothelial growth factor receptor 1 (Homo sapiens) (UniProt P17948); test: Inhibition of N-terminal GST tagged human FLT1 cytoplasmic domain (781 to 1338 AA) expressed in baculovirus at 10 uM using FAM-labelled peptide as substrate pre-incubated for 10 mins followed by substrate addition by mobility shift assay relative to control
Vascular endothelial growth factor receptor 1 (Homo sapiens), sequence (P17948 whole entry, the tested form may be a part): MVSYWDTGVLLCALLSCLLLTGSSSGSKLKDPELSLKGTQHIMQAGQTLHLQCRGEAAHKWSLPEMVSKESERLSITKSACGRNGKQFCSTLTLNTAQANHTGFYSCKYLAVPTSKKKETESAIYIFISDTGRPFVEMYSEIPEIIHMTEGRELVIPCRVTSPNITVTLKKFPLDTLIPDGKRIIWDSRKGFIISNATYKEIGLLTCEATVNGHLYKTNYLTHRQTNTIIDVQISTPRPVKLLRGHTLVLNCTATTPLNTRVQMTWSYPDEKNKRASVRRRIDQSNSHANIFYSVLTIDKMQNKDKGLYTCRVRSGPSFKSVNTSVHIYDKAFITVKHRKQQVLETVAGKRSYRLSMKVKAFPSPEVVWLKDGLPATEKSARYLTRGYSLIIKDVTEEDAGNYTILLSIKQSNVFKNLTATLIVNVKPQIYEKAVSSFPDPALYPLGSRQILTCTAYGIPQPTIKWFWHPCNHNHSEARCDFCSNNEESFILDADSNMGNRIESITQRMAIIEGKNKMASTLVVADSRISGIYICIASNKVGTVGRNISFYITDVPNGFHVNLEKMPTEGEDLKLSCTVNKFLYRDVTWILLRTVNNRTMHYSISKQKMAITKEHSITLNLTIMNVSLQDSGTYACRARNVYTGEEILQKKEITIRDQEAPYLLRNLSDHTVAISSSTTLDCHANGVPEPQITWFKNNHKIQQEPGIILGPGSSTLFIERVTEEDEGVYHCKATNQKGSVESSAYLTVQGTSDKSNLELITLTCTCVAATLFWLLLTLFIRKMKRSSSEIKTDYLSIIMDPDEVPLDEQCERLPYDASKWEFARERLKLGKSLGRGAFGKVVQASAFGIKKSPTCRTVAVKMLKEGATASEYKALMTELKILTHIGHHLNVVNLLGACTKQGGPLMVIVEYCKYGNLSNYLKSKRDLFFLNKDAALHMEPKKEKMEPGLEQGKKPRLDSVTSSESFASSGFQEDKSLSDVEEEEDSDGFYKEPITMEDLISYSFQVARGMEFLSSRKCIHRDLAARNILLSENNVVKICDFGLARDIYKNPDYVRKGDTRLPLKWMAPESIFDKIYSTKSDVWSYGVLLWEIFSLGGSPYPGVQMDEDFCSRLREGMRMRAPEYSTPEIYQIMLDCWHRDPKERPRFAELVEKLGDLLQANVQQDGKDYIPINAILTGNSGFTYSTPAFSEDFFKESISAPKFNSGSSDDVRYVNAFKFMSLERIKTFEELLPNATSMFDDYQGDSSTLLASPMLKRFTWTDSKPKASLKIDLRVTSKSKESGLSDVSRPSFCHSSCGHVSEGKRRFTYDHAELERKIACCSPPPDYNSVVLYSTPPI

[11] = target: CDK4/Cyclin D3 (Homo sapiens) (UniProt P11802+P30281); test: Inhibition of N-terminal GST tagged truncated human CDK4 (1 to 303 AA) coexpressed with CyclinD3 (1 to 292 AA) in baculovirus at 10 uM using FAM-labelled peptide as substrate pre-incubated for 10 mins followed by substrate addition by mobility shift assay relative to control; assay type: protein-complex assay

COc1ccc(OC)c(Nc2cc(NC(=O)Nc3c(Cl)cccc3Cl)ncn2)c1
inhibition (Homo sapiens): Dose-dependent effect | IC50 [1]: 73 nM | inhibition at 10 µM (PC-9 [2]): 95% | IC50 (PC-9 [3]): 1340 nM | inhibition [4]: Active | Activity (NCI-H226): 5.8% | viability at 1 µM [5]: 79.5% | Activity [6]: 0.9% | Activity (Mus musculus): Active | AUC(0-inf) [7]: 13000 ng·h/mL | inhibition [8]: 82.5% | inhibition [9]: 3.36% | inhibition [10]: 27.6% | inhibition [11]: 12.5%

Source: ChEMBL document CHEMBL4414679, “Discovery of 4,6-pyrimidinediamine derivatives as novel dual EGFR/FGFR inhibitors aimed EGFR/FGFR1-positive NSCLC” (Eur J Med Chem, 2020)
